Data on twelve compounds can be found in the NIST ThermoML archive (doi:10.1021/je400874d).

The conditions of data set [1]: DTA; for Normal melting temperature: Crystal 1.
Data set [2] is described as follows: Molar enthalpy of transition or fusion. To be noted: DSC.

Numbers after ± are expanded uncertainties.

In the case of `CCCCCCCCCCCC(=O)[O-].[K+]` [dodecanoic acid, potassium salt], the Normal melting temperature in data set [1] worked out at 399 ± 0.5 °C. In addition, the Triple point temperature in data set [1] (Crystal 2) came to 543.4 ± 0.5 K; in data set [1] (Crystal 3) it was 489 ± 1 K; in data set [1] (Crystal 4), 405.5 ± 0.5 K; in data set [1] (Crystal 5) it was 328.1 ± 0.5 K. Further, the “Molar enthalpy of transition or fusion” value in data set [2] (Crystal 1) turned out to be 0.342 ± 0.0574 kcal/mol; in data set [2] (Crystal 2), 2.79 ± 0.115 kcal/mol; in data set [2] (Crystal 3), 1.31 ± 0.0574 kcal/mol; in data set [2] (Crystal 4) it was 2.28 ± 0.115 kcal/mol; in data set [2] (Crystal 5), 2.96 ± 0.115 kcal/mol.

As for `CCCC(=O)[O-].[K+]` [potassium butanoate], the Normal melting temperature in data set [1] worked out at 394 ± 0.5 °C. Further, the figures for the Triple point temperature in data set [1] (Crystal 2), in data set [1] (Crystal 3) and in data set [1] (Crystal 4) were 623.1 ± 0.5 K, 550 ± 1 K and 454.7 ± 0.5 K, respectively. The “Molar enthalpy of transition or fusion” value was 1.18 ± 0.0598 kcal/mol in data set [2] (Crystal 1), 2.56 ± 0.0908 kcal/mol in data set [2] (Crystal 2), 0.814 ± 0.0598 kcal/mol in data set [2] (Crystal 3) and 0.166 ± 0.0311 kcal/mol in data set [2] (Crystal 4).

With `CCCCCCCCCC(=O)[O-].[K+]` [potassium decanoate], the Normal melting temperature in data set [1] was 418.4 ± 0.5 °C. The Triple point temperature in data set [1] (Crystal 2) was found to be 546.5 ± 0.5 K; in data set [1] (Crystal 3) it was 528 ± 1 K; in data set [1] (Crystal 4), 383 ± 1 K; in data set [1] (Crystal 5) it was 346.3 ± 0.5 K. Moreover, the results for the “Molar enthalpy of transition or fusion” value in data set [2] (Crystal 1), in data set [2] (Crystal 4) and in data set [2] (Crystal 5) were 0.402 ± 0.0502 kcal/mol, 0.855 ± 0.0502 kcal/mol and 1.36 ± 0.1 kcal/mol, respectively.

Take `CC(=O)[O-].[K+]` [potassium ethanoate]: the Normal melting temperature in data set [1] was 305.5 ± 0.5 °C. The Triple point temperature was 425 ± 1 K in data set [1] (Crystal 2) and 331.8 ± 0.5 K in data set [1] (Crystal 3). Further, the “Molar enthalpy of transition or fusion” value was 3.92 ± 0.117 kcal/mol in data set [2] (Crystal 1), 0.0704 ± 0.0234 kcal/mol in data set [2] (Crystal 2) and 0.0164 ± 0.0234 kcal/mol in data set [2] (Crystal 3).

On to `O=C[O-].[K+]` [potassium formate], for which the Normal melting temperature in data set [1] was determined as 169.1 ± 0.5 °C. Also, the Triple point temperature in data set [1] (Crystal 2) is 415.8 ± 0.5 K. The results for the “Molar enthalpy of transition or fusion” value in data set [2] (Crystal 1) and in data set [2] (Crystal 2) were 2.79 ± 0.1 kcal/mol and 0.137 ± 0.0311 kcal/mol, respectively.

Turning to `CCCCCCC(=O)[O-].[K+]` [potassium heptanoate], the Normal melting temperature in data set [1] came out at 449 ± 1 °C. Also, the figures for the Triple point temperature in data set [1] (Crystal 2) and in data set [1] (Crystal 3) were 571 ± 0.5 K and 333.7 ± 0.5 K, respectively. Besides, the “Molar enthalpy of transition or fusion” value in data set [2] (Crystal 1) amounted to 0.804 ± 0.0813 kcal/mol; in data set [2] (Crystal 2), 4.22 ± 0.12 kcal/mol; in data set [2] (Crystal 3), 3.14 ± 0.12 kcal/mol.

Take `CCCCCC(=O)[O-].[K+]` [potassium hexanoate]: the Normal melting temperature in data set [1] was 450.5 ± 0.8 °C. Moreover, the Triple point temperature in data set [1] (Crystal 2) turned out to be 582.4 ± 0.5 K. Moreover, the “Molar enthalpy of transition or fusion” value was determined as 0.922 ± 0.0359 kcal/mol in data set [2] (Crystal 1) and 3.98 ± 0.11 kcal/mol in data set [2] (Crystal 2).

On to `CCCCCCCCC(=O)[O-].[K+]` [potassium nonanoate], for which, in data set [1], the Normal melting temperature is 431.4 ± 0.5 °C. For the same compound, the Triple point temperature was determined as 544.9 ± 0.5 K in data set [1] (Crystal 2) and 367.6 ± 0.5 K in data set [1] (Crystal 3). Further, the results for the “Molar enthalpy of transition or fusion” value in data set [2] (Crystal 1), in data set [2] (Crystal 2) and in data set [2] (Crystal 3) were 0.469 ± 0.0478 kcal/mol, 3.47 ± 0.141 kcal/mol and 3.75 ± 0.141 kcal/mol, respectively.

On to `CCCCCCCC(=O)[O-].[K+]` [potassium octanoate], for which the Normal melting temperature in data set [1] was 435.5 ± 0.5 °C. Besides, the Triple point temperature is 562.8 ± 0.5 K in data set [1] (Crystal 2) and 327.8 ± 0.5 K in data set [1] (Crystal 3). For the same compound, the “Molar enthalpy of transition or fusion” value in data set [2] (Crystal 1) worked out at 0.523 ± 0.043 kcal/mol; in data set [2] (Crystal 2), 4.01 ± 0.131 kcal/mol; in data set [2] (Crystal 3), 2.4 ± 0.086 kcal/mol.

For the compound `CCCCC(=O)[O-].[K+]` [potassium pentanoate], the Normal melting temperature in data set [1] was found to be 443.6 ± 0.5 °C. Further, the results for the Triple point temperature in data set [1] (Crystal 2) and in data set [1] (Crystal 3) were 585.4 ± 0.5 K and 397.6 ± 0.5 K, respectively. The “Molar enthalpy of transition or fusion” value in data set [2] (Crystal 1) worked out at 1.14 ± 0.0669 kcal/mol; in data set [2] (Crystal 2), 4.16 ± 0.134 kcal/mol; in data set [2] (Crystal 3), 0.0938 ± 0.0311 kcal/mol.

In the case of `CCC(=O)[O-].[K+]` [potassium propanoate], the Normal melting temperature in data set [1] is 363.8 ± 0.5 °C. The Triple point temperature in data set [1] (Crystal 2) is reported as 352.1 ± 0.5 K. Further, the “Molar enthalpy of transition or fusion” value in data set [2] (Crystal 1) was 4.88 ± 0.134 kcal/mol; in data set [2] (Crystal 2), 0.429 ± 0.0263 kcal/mol.

Turning to `CCCCCCCCCCC(=O)[O-].[K+]` [potassium undecanoate], the Normal melting temperature in data set [1] worked out at 407.6 ± 0.5 °C. The Triple point temperature in data set [1] (Crystal 2) was 542.5 ± 0.5 K; in data set [1] (Crystal 3), 410 ± 1 K; in data set [1] (Crystal 4), 354.6 ± 0.5 K. The “Molar enthalpy of transition or fusion” value in data set [2] (Crystal 1) was determined as 0.375 ± 0.0526 kcal/mol; in data set [2] (Crystal 2), 2.9 ± 0.108 kcal/mol; in data set [2] (Crystal 3) it was 2.15 ± 0.108 kcal/mol; in data set [2] (Crystal 4), 2.95 ± 0.108 kcal/mol.
